# According to PubChem BioAssay AID256 (DTP/NCI, 2004):
# Where “and” joins values, the source holds several entries; their conditions need not be identical. Equal values may be shown once. Inconclusive results and toxic doses are left out.
# Test system: CD2F1 mice, L1210 leukemia ip, survival T/C
# Assay: NCI In Vivo Anticancer Drug Screen. Data for tumor model L1210 Leukemia (intraperitoneal) in CD2F1 (CDF1) mice
# Details: endpoint: mean survival time, higher = longer survival
# Outline: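 Vehicle-treated tumor-bearing mice served as controls (C) for compound-treated mice (T). Reported figure is T divided by C.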
# [1] = dose: 100.0 mg/kg/injection, schedule: Q04DX002 (ip), vehicle: saline with Tween-80
# [2] = dose: 200.0 mg/kg/injection, schedule: Q04DX002 (ip), vehicle: saline with Tween-80
# [3] = dose: 400.0 mg/kg/injection, schedule: Q04DX002 (ip), vehicle: saline with Tween-80
# [4] = dose: 100.0 mg/kg/injection, schedule: Q04DX003 (ip), vehicle: saline with Tween-80
# [5] = dose: 200.0 mg/kg/injection, schedule: Q04DX003 (ip), vehicle: saline with Tween-80
# [6] = dose: 12.5 mg/kg/injection, schedule: Q01DX009 (ip), vehicle: saline with Tween-80
# [7] = dose: 25.0 mg/kg/injection, schedule: Q01DX009 (ip), vehicle: saline with Tween-80
# [8] = dose: 50.0 mg/kg/injection, schedule: Q01DX009 (ip), vehicle: saline with Tween-80
# [9] = dose: 100.0 mg/kg/injection, schedule: Q01DX009 (ip), vehicle: saline with Tween-80
# [10] = dose: 400.0 mg/kg/injection, schedule: Q01DX001 (ip), vehicle: saline
# [11] = dose: 200.0 mg/kg/injection, schedule: Q01DX009 (ip), vehicle: saline with Tween-80
# [12] = dose: 400.0 mg/kg/injection, schedule: Q01DX009 (ip), vehicle: saline with Tween-80
compound,measurement,setting,value
O=Nc1c(-c2ccccc2)n(O)[n+]([O-])c1-c1ccccc1,T/C,"dose: 50.0 mg/kg/injection, schedule: Q01DX009 (ip), vehicle: Klucel (hydroxypropylcellulose) (HPC)",89 % of control
same,T/C,"dose: 100.0 mg/kg/injection, schedule: Q01DX009 (ip), vehicle: Klucel (hydroxypropylcellulose) (HPC)",89 % of control
same,T/C,"dose: 200.0 mg/kg/injection, schedule: Q01DX009 (ip), vehicle: Klucel (hydroxypropylcellulose) (HPC)",97 % of control
CCOC(=O)/C(C#N)=N/Nc1cccc(Cl)c1Cl,T/C,[1],96 % of control
same,T/C,[2],96 % of control
same,T/C,[3],100 % of control
CCCC/C=N/NC(=O)c1ccc[n+](C)c1,T/C,"dose: 100.0 mg/kg/injection, schedule: Q04DX003 (ip), vehicle: saline",102 % of control
same,T/C,"dose: 200.0 mg/kg/injection, schedule: Q04DX003 (ip), vehicle: saline",98 % of control
same,T/C,"dose: 400.0 mg/kg/injection, schedule: Q04DX003 (ip), vehicle: saline",105 % of control
COC(=O)c1ccccc1NC(=O)/C=C/C(=O)O,T/C,"dose: 50.0 mg/kg/injection, schedule: Q01DX009 (ip), vehicle: saline",94 % of control
same,T/C,"dose: 100.0 mg/kg/injection, schedule: Q01DX009 (ip), vehicle: saline",88 % of control
same,T/C,[4],98 % of control
same,T/C,"dose: 200.0 mg/kg/injection, schedule: Q01DX009 (ip), vehicle: saline",90 % of control
same,T/C,[5],95 % of control
CC(=O)OCC1OC(n2cc(CBr)nn2)C(OC(C)=O)C(OC(C)=O)C1OC(C)=O (stereo not drawn),T/C,"dose: 3.12 mg/kg/injection, schedule: Q01DX009 (ip), vehicle: saline with Tween-80",94 % of control and 96 % of control
same,T/C,"dose: 6.25 mg/kg/injection, schedule: Q01DX009 (ip), vehicle: saline with Tween-80",98 % of control and 102 % of control
same,T/C,"dose: 6.25 mg/kg/injection, schedule: Q01DX009 (ip), vehicle: suspension in saline",101 % of control
same,T/C,"dose: 6.25 mg/kg/injection, schedule: Q04DX003 (ip), vehicle: suspension in saline",100 % of control
same,T/C,"dose: 7.5 mg/kg/injection, schedule: Q01DX009 (ip), vehicle: saline",98 % of control
same,T/C,[6],94 % of control and 104 % of control
same,T/C,"dose: 12.5 mg/kg/injection, schedule: Q01DX009 (ip), vehicle: suspension in saline",102 % of control
same,T/C,"dose: 12.5 mg/kg/injection, schedule: Q04DX003 (ip), vehicle: suspension in saline",107 % of control
same,T/C,"dose: 15.0 mg/kg/injection, schedule: Q01DX009 (ip), vehicle: saline",100 % of control
same,T/C,[7],102 % of control and 108 % of control
same,T/C,"dose: 25.0 mg/kg/injection, schedule: Q01DX009 (ip), vehicle: suspension in saline",101 % of control
same,T/C,"dose: 25.0 mg/kg/injection, schedule: Q04DX003 (ip), vehicle: suspension in saline",100 % of control
same,T/C,"dose: 30.0 mg/kg/injection, schedule: Q01DX009 (ip), vehicle: saline",98 % of control
same,T/C,[8],95 % of control and 102 % of control
same,T/C,"dose: 50.0 mg/kg/injection, schedule: Q01DX009 (ip), vehicle: suspension in saline",96 % of control
same,T/C,"dose: 50.0 mg/kg/injection, schedule: Q04DX003 (ip), vehicle: suspension in saline",103 % of control
same,T/C,"dose: 60.0 mg/kg/injection, schedule: Q01DX009 (ip), vehicle: saline",102 % of control
same,T/C,[9],102 % of control
Cc1cc(C)c(S(=O)O)c(C)c1,T/C,"dose: 100.0 mg/kg/injection, schedule: Q01DX001 (ip), vehicle: saline",103 % of control
same,T/C,"dose: 200.0 mg/kg/injection, schedule: Q01DX001 (ip), vehicle: saline",103 % of control
same,T/C,[10],103 % of control
CC1=C(C)CC(C(Cl)(Cl)Cl)C([N+](=O)[O-])C1 (stereo not drawn),T/C,[4],98 % of control
same,T/C,[5],96 % of control
S=c1[nH]nc2n1NC(c1ccoc1)=NN2,T/C,"dose: 25.0 mg/kg/injection, schedule: Q04DX003 (ip), vehicle: saline with Tween-80",96 % of control
same,T/C,"dose: 50.0 mg/kg/injection, schedule: Q04DX003 (ip), vehicle: saline with Tween-80",100 % of control
same,T/C,[4],90 % of control and 93 % of control
same,T/C,[5],107 % of control
Nc1ccccc1NS(=O)(=O)c1ccc(Cl)cc1,T/C,[9],95 % of control
same,T/C,[11],101 % of control
same,T/C,[12],106 % of control
CC(=O)Nn1cnc2c(SCc3ccccc3)ncnc21,T/C,"dose: 177.0 mg/kg/injection, schedule: Q01DX001 (ip), vehicle: saline",95 % of control
same,T/C,"dose: 266.0 mg/kg/injection, schedule: Q01DX001 (ip), vehicle: saline",95 % of control
same,T/C,[10],97 % of control
same,T/C,"dose: 600.0 mg/kg/injection, schedule: Q01DX001 (ip), vehicle: saline",96 % of control
CC1CCOC(C)(C)O1 (stereo not drawn),T/C,"dose: 100.0 mg/kg/injection, schedule: Q04DX002 (ip), vehicle: saline",100 % of control
same,T/C,"dose: 200.0 mg/kg/injection, schedule: Q04DX002 (ip), vehicle: saline",86 % of control
same,T/C,"dose: 400.0 mg/kg/injection, schedule: Q04DX002 (ip), vehicle: saline",104 % of control
CCCCOC(=O)c1ccccc1,T/C,[9],102 % of control
same,T/C,[11],104 % of control
Cc1c2ccc3ccccc3c2c[n+]2ccccc12,T/C,"dose: 1.25 mg/kg/injection, schedule: Q01DX009 (ip), vehicle: Klucel (hydroxypropylcellulose) (HPC)",87 % of control and 102 % of control
same,T/C,"dose: 2.5 mg/kg/injection, schedule: Q01DX009 (ip), vehicle: Klucel (hydroxypropylcellulose) (HPC)",98 % of control and 102 % of control
same,T/C,"dose: 5.0 mg/kg/injection, schedule: Q01DX009 (ip), vehicle: Klucel (hydroxypropylcellulose) (HPC)",100 % of control and 105 % of control
same,T/C,"dose: 10.0 mg/kg/injection, schedule: Q01DX009 (ip), vehicle: Klucel (hydroxypropylcellulose) (HPC)",104 % of control and 110 % of control
same,T/C,"dose: 20.0 mg/kg/injection, schedule: Q01DX009 (ip), vehicle: Klucel (hydroxypropylcellulose) (HPC)",105 % of control
CC(=O)OC1CC2(O)C(CCC3(C)C(c4ccc(=O)oc4)CCC32O)C2(C)C1=CC(O)C1OC12 (stereo not drawn),T/C,"dose: 0.13 mg/kg/injection, schedule: Q01DX009 (sc), vehicle: steriod suspending solution",100 % of control
same,T/C,"dose: 0.25 mg/kg/injection, schedule: Q01DX009 (sc), vehicle: steriod suspending solution",97 % of control
same,T/C,"dose: 0.5 mg/kg/injection, schedule: Q01DX009 (sc), vehicle: steriod suspending solution",100 % of control
same,T/C,"dose: 1.0 mg/kg/injection, schedule: Q01DX009 (sc), vehicle: steriod suspending solution",89 % of control
CC1(C)N=C(N)N=C(N)N1c1ccc(OCCNS(=O)(=O)c2cccc(S(=O)(=O)F)c2)c(Cl)c1,T/C,[6],108 % of control
same,T/C,[7],110 % of control
same,T/C,[8],117 % of control
same,T/C,"dose: 100.0 mg/kg/injection, schedule: Q01DX001 (ip), vehicle: saline with Tween-80",97 % of control
same,T/C,[9],164 % of control
same,T/C,[1],97 % of control
same,T/C,"dose: 200.0 mg/kg/injection, schedule: Q01DX001 (ip), vehicle: saline with Tween-80",107 % of control
same,T/C,[11],94 % of control
same,T/C,[2],108 % of control
same,T/C,"dose: 400.0 mg/kg/injection, schedule: Q01DX001 (ip), vehicle: saline with Tween-80",111 % of control
same,T/C,[3],101 % of control
CO[C@@]12[C@H](COC(N)=O)C3=C(C(=O)C(C)=C(N)C3=O)N1C[C@H]1[C@@H]2N1C(=O)[C@@H]1N2C(=O)[C@@H](NC(=O)Cc3ccccc3)[C@H]2SC1(C)C,T/C,"dose: 25.0 mg/kg/injection, schedule: Q01DX001 (ip), vehicle: carboxymethylcellulose (CMC)",109 % of control
same,T/C,"dose: 25.0 mg/kg/injection, schedule: Q01DX007 (ip), vehicle: carboxymethylcellulose (CMC)",120 % of control
same,T/C,"dose: 25.0 mg/kg/injection, schedule: Q01DX007 (oral), vehicle: carboxymethylcellulose (CMC)",100 % of control
same,T/C,"dose: 50.0 mg/kg/injection, schedule: Q01DX001 (ip), vehicle: carboxymethylcellulose (CMC)",113 % of control
same,T/C,"dose: 50.0 mg/kg/injection, schedule: Q01DX007 (ip), vehicle: carboxymethylcellulose (CMC)",116 % of control
same,T/C,"dose: 50.0 mg/kg/injection, schedule: Q01DX007 (oral), vehicle: carboxymethylcellulose (CMC)",96 % of control
same,T/C,"dose: 100.0 mg/kg/injection, schedule: Q01DX001 (ip), vehicle: carboxymethylcellulose (CMC)",111 % of control
same,T/C,"dose: 200.0 mg/kg/injection, schedule: Q01DX001 (ip), vehicle: carboxymethylcellulose (CMC)",111 % of control
same,T/C,"dose: 400.0 mg/kg/injection, schedule: Q01DX001 (ip), vehicle: carboxymethylcellulose (CMC)",111 % of control
O=C(O)C1CC2C=CC1C2 (stereo not drawn),T/C,[9],94 % of control
same,T/C,[4],96 % of control
same,T/C,[11],91 % of control
same,T/C,[5],96 % of control
same,T/C,[12],94 % of control
same,T/C,"dose: 400.0 mg/kg/injection, schedule: Q04DX003 (ip), vehicle: saline with Tween-80",94 % of control
